Reference: patent US10100284B2, “Method for inducing differentiation of pluripotent stem cells into endodermal cells” (TOAGOSEI CO., LTD., priority 2013, dated 2018)
Where no end group is shown, it is not given here.

Columns and labels:
[1] = tested on: human-derived iPS cells (clone name: 201B2 or 201B7); assay: Stem cell differentiation-inducing activity based on iPS cell transformation (optical microscope morphology); conditions: peptide concentration 4.0 μM; eight days after the beginning of culture; FIG. 1; peptide-free group 80% or more black (undifferentiated)
Method: The differentiation-inducing activity of a differentiation-inducing synthetic peptide (Sample 1) obtained in Example 1 above was evaluated based on the transformation of iPS cells cultured and passaged in vitro. A peptide-free group was also provided as a comparative example. The details of the evaluation test were as follows.
Cells supplied by the Kyoto University Center for iPS cell Research and Application were used as the human-derived iPS cells in this example (clone name: 201B2 or 201B7, reference source: Takahashi K et al., Cell, 131, 861-872 (2007)). For the feeder cells used in culturing these iPS cells, mouse embryonic fibroblasts (MEF cells) were used to passage (maintain) the iPS cells, while mouse embryonic fibroblasts (cell strain SNL 76/7) supplied under license by the Baylor College of Medicine were used in testing to evaluate the stem cell differentiation-inducing activity of the differentiation-inducing synthetic peptide (Sample 1).
Feeder cells that had been inactivated by mitomycin C treatment were seeded ahead of time on a gelatin-coated 24-well plate 1 to 4 days before seeding of the iPS cells. […]

[2] = tested on: iPS cells (clone name: 201B2 or 201B7); assay: AFP ELISA of iPS cell culture supernatant; type: cell-based, human; conditions: peptide concentration in medium 6 μM; as culture time increased; FIG. 4
Method: The stem cell differentiation-inducing activity of the differentiation-inducing synthetic peptide (Sample 1) obtained in Example 1 was evaluated by quantifying changes over time in the expressed amounts (typically extracellular secretion) of AFP and ALB, which are proteins known as markers of differentiation into endodermal cells. It is known that AFP is expressed in cells that have differentiated into liver precursor cells among the endodermal cells, while ALB is expressed in cells that have differentiated sufficiently to function effectively as hepatocytes (that is, hepatocytes or hepatocyte-like cells). […]
200 μL of a substrate solution obtained by mixing 1 volume each of the accessory coloring reagent (A) and coloring reagent (B) was added per well, and left standing for 30 minutes in the dark. […] Absorbance A450 at 450 nm and absorbance A550 at 550 nm were then measured with a spectrophotometer in the reaction liquid in the wells.
Absorbance values A(450-550) were calculated by subtracting the absorbance A550 from the absorbance A450 obtained by the previous measurement (that is, absorbance A(450-550)=[…]) for each of the samples from the AFP evaluation test group and ALB evaluation test group. […]

With “LLLLLLVGLTAPAGKKRTLRKNDRKKR-CONH2 (LLLLLLVGLTAPAGKKRTLRKNDRKKR-NH2) [Sample 1]” the “part of microscope field appearing white (occupied by colonies of differentiated iPS cells)” value [1] was ≥ 80% and the “AFP level of the culture supernatant in comparison with peptide-free group with the same culture time” value [2] was “increased dramatically”.
